Measurements from patent US7968558B2, “Amidine derivatives of 2-heteroaryl-quinazolines and quinolines; potent analgesics and anti-inflammatory agents” (Rottapharm S.p.A., priority 2006, dated 2011).

Assays:
[1] = system: mechanical hyperalgesia associated with STZ-induced diabetes; test: STZ-induced diabetes mechanical hyperalgesia (neuropathic pain); assay type: in vivo, rat
Protocol: Streptozotocin (STZ)-induced diabetes in the rat has been increasingly used as a model of painful diabetic neuropathy to assess the efficacies of potential analgesic agents (C. Courteix, Pain 1993, 53, 81-8). The compounds of the invention were tested for efficacy in reducing mechanical hyperalgesia associated with STZ-induced diabetes in the rat, according to the experimental model as described by the literature. Diabetes was produced with the injection of a single dose (75 mg/Kg i.p.) of STZ. In the following four weeks after the induction of diabetes the clinical symptoms (weight, body and skin temperature, motility and hyperglycemia) progressively developed by the animals, are strictly monitored. After four weeks, the scores obtained in diabetic rats to various pain stimuli (in particular mechanical stimuli) were grater than those in normal rats, indicating hyperalgesia. The hyperalgesia induced by diabetes was evaluated using the Randall-Selitto method as above described, and quantitated using the analgesimeter. Also in this case, the difference in the mechanical pain threshold between the basal value (generally 230-250 g) and the one tolerated by the animals treated with the drug, is defined as mechanical hyperalgesia. The compounds of the invention were administered i.p. (solution, Tween 80, 10% in saline) at different doses, and mechanical hyperalgesia was measured at the reported time, as maximum percent effect (MPE) which represents the difference (%) in pain threshold between the animals treated with the drug and the controls that received only the vehicle, compared with the weight borne by naïf non-diabetic controls. A 100% protection means that the diabetic animals treated with the compound can tolerate the same stimulus (weight) as the naïf non-diabetic animals. MPE higher than 100% means that the diabetic animal treated with the compound can tolerate stimuli (weight) higher than the control non-diabetic animals (hypoalgesia).

[2] = system: acetic acid-induced abdominal writhes; test: Acetic acid-induced writhing test; assay type: in vivo, mice; details: for MPE (%): 30 min. before acetic acid
Protocol: With the aim of assessing whether the compounds of the invention are able to inhibit responses to peritoneal irritation-induced visceral pain, the acetic acid-induced writhing assay was used in mice to determine the degree of anti-nociception.
The writhing test is a model of inflammatory pain that has long been used as a screening tool for evaluation of analgesic and anti-inflammatory agents (HDJ Collier, B. J. Pharmacol Chemother., 1968, 32, 295-310). The test was performed inducing nociception by an i.p. injection of acetic acid 1%, 0.1 mL/10 g of body weight. Mice were pre-treated (subcutaneously, s.c., three different doses: 3, 10, 30 mg/Kg) with the tested compounds 30 min. before acetic acid injection, while control animals received a similar volume of saline solution. A group of mice was treated with Paracetamol (200 mg/Kg, s.c.) as reference drug. The number of abdominal writhes (full extension of both hind paws) was cumulatively counted every 5 minutes over a period of 20 min. immediately after the acetic acid injection. The anti-nociceptive activity was expressed as inhibition of abdominal writhes as maximum percent effect (MPE), which represents the difference (%) in pain threshold between the animals treated with the drug and the ones that received only the vehicle.

[3] = system: CFA-induced hyperalgesia; test: CFA model of chronic inflammatory pain; assay type: in vivo, rat

**Q.** CC(=N)Nc1ccc2nc(-c3ccc4c(c3)OCO4)ncc2c1 [Example 1, N-[2-(1,3-benzodioxol-5-yl)quinazolin-6-yl]acetamidine] was tested. Which “MPE 0.5 hrs.” value ([1]; 3 mg/Kg i.p.) did it give?
**A.** The value was 15%.

**Q.** What about the “MPE 1.5 hrs.” value ([1]; 3 mg/Kg i.p.) of the same compound?
**A.** The value was 30%.

**Q.** And the “MPE 3 hrs.” value ([1]; 3 mg/Kg i.p.)?
**A.** Its value is 45%.

**Q.** What about the “MPE 0.5 hrs.” value ([1]; 10 mg/Kg i.p.) of the same compound?
**A.** Its value is 59%.

**Q.** What about the “MPE 1.5 hrs.” value ([1]; 10 mg/Kg i.p.) of the same compound?
**A.** Its value is 34%.

**Q.** And the “MPE 3 hrs.” value ([1]; 10 mg/Kg i.p.)?
**A.** The value was 46%.

**Q.** And the “MPE 0.5 hrs.” value ([1]; 30 mg/Kg i.p.)?
**A.** Its value is 110%.

**Q.** And the “MPE 1.5 hrs.” value ([1]; 30 mg/Kg i.p.)?
**A.** Its value is 137%.

**Q.** And the “MPE 3 hrs.” value ([1]; 30 mg/Kg i.p.)?
**A.** Its value is 101%.

**Q.** And the “MPE (%)” value ([2]; 3 mg/Kg s.c.)?
**A.** The value was 30%.

**Q.** And the “MPE (%)” value ([2]; 10 mg/Kg s.c.)?
**A.** Its value is 33%.

**Q.** And the “MPE (%)” value ([2]; 30 mg/Kg s.c.)?
**A.** Its value is 89%.

**Q.** What about the ED50 ([2]; Mus musculus, sc, writhing test, read-out: ED50) of the same compound?
**A.** Its ED50 is 9.8 mg/kg.

**Q.** What about the “MPE 0.5 hrs.” value ([3]; 3 mg/Kg i.p.) of the same compound?
**A.** The value was 9%.

**Q.** And the “MPE 0.5 hrs.” value ([3]; 10 mg/Kg i.p.)?
**A.** Its value is 28%.

**Q.** And the “MPE 1.5 hrs.” value ([3]; 10 mg/Kg i.p.)?
**A.** The value was 47%.

**Q.** And the “MPE 3 hrs.” value ([3]; 10 mg/Kg i.p.)?
**A.** Its value is 15%.

**Q.** What about the “MPE 6 hrs.” value ([3]; 10 mg/Kg i.p.) of the same compound?
**A.** Its value is 30%.

**Q.** And the “MPE 0.5 hrs.” value ([3]; 30 mg/Kg i.p.)?
**A.** The value was 418%.

**Q.** And the “MPE 1.5 hrs.” value ([3]; 30 mg/Kg i.p.)?
**A.** Its value is 395%.

**Q.** What about the “MPE 3 hrs.” value ([3]; 30 mg/Kg i.p.) of the same compound?
**A.** Its value is 384%.

**Q.** And the “MPE 6 hrs.” value ([3]; 30 mg/Kg i.p.)?
**A.** Its value is 132%.

**Q.** What about the “MPE 24 hrs.” value ([3]; 30 mg/Kg i.p., 24 hrs.) of the same compound?
**A.** Its value is 60%.
